According to patent publication US5053070A, “Pyrimidine derivatives, preparation processes thereof, herbicide containing the same, and herbicidal compositions containing the same along with other active ingredient” (Mitsui Toatsu Chemicals, Incorporated, priority 1988, dated 1991):

Key:
foxtail meadow [1] = assay: Upland soil application test (Test 2); format: in vivo; conditions: 30 g ai/a, soil spray before emergence, 30 days later
Outline: (§1)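 Steps: fill pots with fertilized upland field soil containing uniformly mixed weed seed; sow crops and cover with 2-3 cm soil; after one day, spray the diluted wettable powder evenly over the soil at 10 l per are; assess at 30 days against untreated controls by dry weight.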

johnsongrass [2] = assay: Upland soil application test (Test 2); format: in vivo; conditions: 30 g ai/a, soil spray before emergence, 30 days later
Outline: as §1

large crabgrass [3] = assay: Upland soil application test (Test 2); format: in vivo; conditions: 30 g ai/a, soil spray before emergence, 30 days later
Outline: as §1

green foxtail [4] = assay: Upland soil application test (Test 2); format: in vivo; conditions: 30 g ai/a, soil spray before emergence, 30 days later
Outline: as §1

redroot pigweed [5] = assay: Upland soil application test (Test 2); format: in vivo; conditions: 30 g ai/a, soil spray before emergence, 30 days later
Outline: as §1

barnyardgrass [6] = assay: Upland soil application test (Test 2); format: in vivo; conditions: 30 g ai/a, soil spray before emergence, 30 days later
Outline: as §1

common lambsquarters [7] = assay: Upland soil application test (Test 2); format: in vivo; conditions: 30 g ai/a, soil spray before emergence, 30 days later
Outline: as §1

foxtail meadow [8] = assay: Upland foliar application test (Test 3); format: in vivo; conditions: 30 g ai/a, foliar spray at 2-3 leaves, 30th day
Outline: (§2)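 Foliar post-emergence spray: diluted emulsifiable formulation applied at 5 l/are by pressure ULV sprayer once plants in upland-soil greenhouse pots reached 2-3 leaves. Degree of weed damage and crop injury rated on day 30 post-application.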

johnsongrass [9] = assay: Upland foliar application test (Test 3); format: in vivo; conditions: 30 g ai/a, foliar spray at 2-3 leaves, 30th day
Outline: as §2

large crabgrass [10] = assay: Upland foliar application test (Test 3); format: in vivo; conditions: 30 g ai/a, foliar spray at 2-3 leaves, 30th day
Outline: as §2

green foxtail [11] = assay: Upland foliar application test (Test 3); format: in vivo; conditions: 30 g ai/a, foliar spray at 2-3 leaves, 30th day
Outline: as §2

redroot pigweed [12] = assay: Upland foliar application test (Test 3); format: in vivo; conditions: 30 g ai/a, foliar spray at 2-3 leaves, 30th day
Outline: as §2

barnyardgrass [13] = assay: Upland foliar application test (Test 3); format: in vivo; conditions: 30 g ai/a, foliar spray at 2-3 leaves, 30th day
Outline: as §2

common lambsquarters [14] = assay: Upland foliar application test (Test 3); format: in vivo; conditions: 30 g ai/a, foliar spray at 2-3 leaves, 30th day
Outline: as §2

rice = assay: Treatment of soil under submerged condition, pre-emergence (Test 4), injury; format: in vivo; conditions: 30 g ai/a granule, 30 days later
Outline: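 Wagner pots of soil were seeded or planted with weed seeds or tubers under flooding, then 2–3-leaf rice seedling pairs were transplanted and grown in a greenhouse. One day later, before weed emergence, pots received a granule of the test composition at a predetermined amount. Weed emergence and rice injury were scored 30 days later.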

[15] = test system: ALS (acetolactate syntase); assay: ALS enzyme assay (Test 1); format: biochemical, pea; conditions: 1,000 ppm (0.5 mg/0.5 ml)
Outline: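 Partially purified ALS from dark-grown pea and barnyardgrass seedlings incubated 1 h at 30° C with pyruvate, TPP, MgCl2 and FAD. Compounds tested at 1,000 ppm (0.5 mg/0.5 ml). Acetoin formed detected colorimetrically at 525 nm via creatine/α-naphthol, relative to blank and acid-stopped controls.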

SMILES | Herbicidal effects Foxtail meadow (foxtail meadow [1]) | Herbicidal effects Johnsongrass (johnsongrass [2]) | Herbicidal effects Large crabgrass (large crabgrass [3]) | Herbicidal effects Green foxtail (green foxtail [4]) | Herbicidal effects Redroot pigweed (redroot pigweed [5]) | Herbicidal effects Barnyardgrass (barnyardgrass [6]) | Herbicidal effects Common lambsquarters (common lambsquarters [7]) | Herbicidal effects Foxtail meadow (foxtail meadow [8]) | Herbicidal effects Johnsongrass (johnsongrass [9]) | Herbicidal effects Large crabgrass (large crabgrass [10]) | Herbicidal effects Green foxtail (green foxtail [11]) | Herbicidal effects Redroot pigweed (redroot pigweed [12]) | Herbicidal effects Barnyardgrass (barnyardgrass [13]) | Herbicidal effects Common lambsquarters (common lambsquarters [14]) | Injury Rice (rice) | Inhibitory activity (%) Pea [15] [%]
C=C(C)CON=Cc1ccccc1Oc1nc(OC)cc(OC)n1 [compound 5] | 5 (0-5 (Death)) | 5 (0-5 (Death)) | 5 (0-5 (Death)) | 5 (0-5 (Death)) | 4 (6-10 (Severe damages)) | 5 (0-5 (Death)) | 4 (6-10 (Severe damages)) | 5 (0-5 (Death)) | 5 (0-5 (Death)) | 5 (0-5 (Death)) | 5 (0-5 (Death)) | 4 (6-10 (Severe damages)) | 5 (0-5 (Death)) | 4 (6-10 (Severe damages)) | 0 (91-100 (No damages)) | 0
COc1cc(OC)nc(Oc2ccccc2C=NOC(C)C)n1 [compound 6] | 5 (0-5 (Death)) | 5 (0-5 (Death)) | 4 (6-10 (Severe damages)) | 5 (0-5 (Death)) | 3 (11-40 (Medium damages)) | 4 (6-10 (Severe damages)) | 4 (6-10 (Severe damages)) | 5 (0-5 (Death)) | 5 (0-5 (Death)) | 3 (11-40 (Medium damages)) | 5 (0-5 (Death)) | 4 (6-10 (Severe damages)) | 4 (6-10 (Severe damages)) | 4 (6-10 (Severe damages)) | 0 (91-100 (No damages)) | 0
CC=CCON=Cc1ccccc1Oc1nc(OC)cc(OC)n1 [compound 8] | 5 (0-5 (Death)) | 5 (0-5 (Death)) | 4 (6-10 (Severe damages)) | 5 (0-5 (Death)) | 5 (0-5 (Death)) | 4 (6-10 (Severe damages)) | 4 (6-10 (Severe damages)) | 5 (0-5 (Death)) | 5 (0-5 (Death)) | 3 (11-40 (Medium damages)) | 5 (0-5 (Death)) | 5 (0-5 (Death)) | 4 (6-10 (Severe damages)) | 4 (6-10 (Severe damages)) | 1 (71-90 (Slight damages)) | 0
CC#CCON=Cc1ccccc1Oc1nc(OC)cc(OC)n1 [compound 10] | 4 (6-10 (Severe damages)) | 4 (6-10 (Severe damages)) | 3 (11-40 (Medium damages)) | 4 (6-10 (Severe damages)) | 3 (11-40 (Medium damages)) | 3 (11-40 (Medium damages)) | 3 (11-40 (Medium damages)) | 4 (6-10 (Severe damages)) | 5 (0-5 (Death)) | 5 (0-5 (Death)) | 4 (6-10 (Severe damages)) | 5 (0-5 (Death)) | 5 (0-5 (Death)) | 4 (6-10 (Severe damages)) | 1 (71-90 (Slight damages)) | 0
COc1cc(OC)nc(Oc2ccccc2C=NOCC=CCl)n1 [compound 11] | 5 (0-5 (Death)) | 5 (0-5 (Death)) | 5 (0-5 (Death)) | 5 (0-5 (Death)) | 5 (0-5 (Death)) | 5 (0-5 (Death)) | 4 (6-10 (Severe damages)) | 5 (0-5 (Death)) | 5 (0-5 (Death)) | 5 (0-5 (Death)) | 5 (0-5 (Death)) | 5 (0-5 (Death)) | 5 (0-5 (Death)) | 4 (6-10 (Severe damages)) | 1 (71-90 (Slight damages)) | 0
COc1cc(OC)nc(Oc2ccccc2C=NOCC=C(C)Cl)n1 [compound 12] | 4 (6-10 (Severe damages)) | 4 (6-10 (Severe damages)) | 4 (6-10 (Severe damages)) | 4 (6-10 (Severe damages)) | 3 (11-40 (Medium damages)) | 4 (6-10 (Severe damages)) | 3 (11-40 (Medium damages)) | 4 (6-10 (Severe damages)) | 5 (0-5 (Death)) | 4 (6-10 (Severe damages)) | 4 (6-10 (Severe damages)) | 3 (11-40 (Medium damages)) | 4 (6-10 (Severe damages)) | 3 (11-40 (Medium damages)) | 1 (71-90 (Slight damages)) | 0
COc1cc(OC)nc(Oc2ccccc2C=NOCc2ccccc2Cl)n1 [compound 16] | 3 (11-40 (Medium damages)) | 3 (11-40 (Medium damages)) | 4 (6-10 (Severe damages)) | 3 (11-40 (Medium damages)) | 3 (11-40 (Medium damages)) | 3 (11-40 (Medium damages)) | 3 (11-40 (Medium damages)) | 3 (11-40 (Medium damages)) | 5 (0-5 (Death)) | 3 (11-40 (Medium damages)) | 5 (0-5 (Death)) | 4 (6-10 (Severe damages)) | 3 (11-40 (Medium damages)) | 3 (11-40 (Medium damages)) | 0 (91-100 (No damages)) | 0
COc1cc(OC)nc(Oc2ccccc2C=NOCc2ccc(Cl)c(Cl)c2)n1 [compound 18] | 3 (11-40 (Medium damages)) | 3 (11-40 (Medium damages)) | 3 (11-40 (Medium damages)) | 4 (6-10 (Severe damages)) | 3 (11-40 (Medium damages)) | 4 (6-10 (Severe damages)) | 4 (6-10 (Severe damages)) | 4 (6-10 (Severe damages)) | 5 (0-5 (Death)) | 3 (11-40 (Medium damages)) | 5 (0-5 (Death)) | 4 (6-10 (Severe damages)) | 4 (6-10 (Severe damages)) | 3 (11-40 (Medium damages)) | 0 (91-100 (No damages)) | 0
COc1cc(OC)nc(Oc2ccccc2C=NOCc2ccc(C)cc2)n1 [compound 19] | 4 (6-10 (Severe damages)) | 3 (11-40 (Medium damages)) | 3 (11-40 (Medium damages)) | 4 (6-10 (Severe damages)) | 3 (11-40 (Medium damages)) | 4 (6-10 (Severe damages)) | 4 (6-10 (Severe damages)) | 4 (6-10 (Severe damages)) | 5 (0-5 (Death)) | 3 (11-40 (Medium damages)) | 5 (0-5 (Death)) | 4 (6-10 (Severe damages)) | 3 (11-40 (Medium damages)) | 4 (6-10 (Severe damages)) | 0 (91-100 (No damages)) | 0
